Assay results from PubChem BioAssay (NCI).
Several values for one entry are separate records, joined by “and”; a condition that tells them apart may be missing. Identical values can stand only once.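 All cell lines were grown in 96-well plates and treated with compound for 48 hours. GI50: concentration for 50% inhibition of growth. TGI: concentration producing complete growth inhibition.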

test system: MDA-MB-468 breast; test: NCI tumour cell line growth inhibition, 48 h

SMILES	GI50	TGI
Cn1cc(C2=C(c3cn(CCCO)c4ccccc34)C(=O)NC2=O)c2ccccc21	2250 nM	18400 nM
O=C(C[Si](CC(=O)c1cccc(C(F)(F)F)c1)CC(=O)c1cccc(C(F)(F)F)c1)c1cccc(C(F)(F)F)c1	2240 nM	6710 nM
CC(Nc1c(C#N)cnc2ccc(-c3cnc(N)nc3)cc12)c1ccccc1 (stereo unspecified)	396 nM	3340 nM
Cc1c2cnccc2c(C)c2c1c1cc(CO)ccc1n2C	151 nM	420 nM
CC(=O)OC[C@]1(C)C=C2C(=O)[C@](C)(O)C3(CC3)C(C)=C2[C@H]1OC(=O)N(C)CCN(C)C(=O)OC(C)(C)C	519 nM	1200 nM
COc1ccc(/C=N/C2=C(C#N)C(c3ccccc3)c3c(ccc4ccccc34)O2)cc1 (stereo unspecified)	1080 nM	20500 nM
CCN(CC)c1ccc(/C=C2\SC(=O)C(Nc3nnc(-c4cccnc4SCc4ccccc4)o3)C2=O)cc1 (stereo unspecified)	3230 nM	11800 nM
FC(F)(F)c1cccc(Nc2nc3ccccc3nc2Nc2cccc(C(F)(F)F)c2)c1	1530 nM	3560 nM
O[N+]1=CC=CCC1=S.On1ccccc1=S.[Zn]	584 nM	1600 nM
COc1cccc(/C=N/Nc2ncnc3c2cnn3-c2cccc(OC)c2)c1	> 25000 nM	> 25000 nM
CO[C@H](C(=O)[C@@H](O)[C@@H](C)O)[C@@H]1Cc2cc3cc(O[C@H]4C[C@@H](O[C@H]5C[C@@H](O)[C@H](O)C(C)O5)[C@H](O)C(C)(O)O4)cc(O)c3c(O)c2C(=O)[C@H]1O[C@H]1C[C@@H](O[C@H]2C[C@@H](O[C@H]3C[C@@H](OC)[C@H](O)C(C)O3)[C@@H](O)C(C)O2)[C@H](O)C(C)O1 (stereo partly specified)	2930 nM	> 16800 nM
CCCCCCNC(=O)Nc1ccc2cc3ccc(NC(=O)NCCCCCC)cc3nc2c1	1620 nM	3730 nM
COc1ccc(S(=O)(=O)Nc2cc(/C=C\c3cc(OC)c(OC)c(OC)c3)cc(OC)c2OC)cc1	42 nM	> 100000 nM
NC(=O)c1cccc(N2Cc3ccccc3OC3=C2C(=O)c2c(O)ccc(O)c2C3=O)c1	195 nM	425 nM
COC(=O)[C@@H](C[C@H](Cc1ccccc1)NC(=O)c1csc([C@@H](C[C@H](C(C)C)N(C)C(=O)[C@@H](NC(=O)[C@H]2CCCCN2C)C(C)C)OC(C)=O)n1)NC(=O)OCc1ccccc1	< 0.833 nM	< 0.833 nM
O=C(O)CCCn1c(SCc2c(Cl)cccc2Cl)nc2ccsc2c1=O	240 nM	> 100000 nM
C[C@@H](O)[C@H]1C(=O)N2C(C(=O)O)=C(SCCN=CN)C[C@H]12	1100 nM	2730 nM
CN([O-])c1nc(N(C)[O-])nc(N2CCOCC2)n1.CN([O-])c1nc(N(C)[OH2+])nc(N2CCOCC2)n1.[Fe+3]	45400 nM	> 100000 nM
Clc1ccc(/C=C2\CCCC3C2=Nc2ccccc2NC3c2ccc(Cl)cc2)cc1 (stereo unspecified)	1890 nM	4600 nM
O=C1OCC2=C1C(c1cccc(Cl)c1)c1cc3c(cc1N2CCO)OCO3 (stereo unspecified)	246 nM	

SMILES	GI50	TGI
Cc1c(C(N)=O)sc2c1c(=O)n(Cc1ccccc1)c1nnc(SCC(=O)Nc3ccc(Cl)cc3)n21	2640 nM	6880 nM
Cc1cc(Nc2cccc(F)c2)nc(NCc2ccccc2)n1	2170 nM	7750 nM
CCCCCCCCCCCC[n+]1c(C)cc(N)c2ccccc21	206 nM	760 nM
O=C1c2ccccc2C(=O)c2c(N=Nc3[nH]c(=S)[nH]c3O)cccc21	440 nM	9340 nM
C1CN1c1nc(N2CC2)nc(N2CC2)n1	4830 nM	19200 nM
Cn1cc(C2=C(c3cn(CCSC(=N)N)c4ccccc34)C(=O)NC2=O)c2ccccc21	3190 nM	7120 nM
CC(=O)c1cc2c(c(O)c1C)C(=O)C(=O)c1c(O)cccc1-2	198 nM	495 nM
COc1cccc2c1-c1ccccc1C2=O	346 nM	21300 nM
COC(=O)C(N)CSC(c1ccccc1)(c1ccccc1)c1ccccc1 (stereo unspecified)	336 nM	2740 nM
Nc1nc(N)c2cc(CNc3ccc(C(=O)NC(CC(=O)O)C(=O)O)cc3)ccc2n1 (stereo unspecified)	941 nM	
Cc1nc2cc(-n3c(-c4ccc(F)cc4)nc4ccccc4c3=O)ccc2n1Cc1ccccc1	2000 nM	4950 nM
O=C(N/N=C\c1c(O)ccc2ccccc12)C1CC1	3160 nM	8680 nM
O=C(Nc1cccc(-c2cccc(F)c2)c1)C1CCN(Cc2cccc3cccnc23)CC1	1760 nM	3460 nM
COc1ccc2nc3cc(Cl)ccc3c(NCCCCCN3CCCCC3)c2c1	1210 nM	2580 nM
CC(C)[C@]12O[C@H]1[C@@H]1O[C@]13[C@]1(O[C@H]1C[C@H]1C4=C(CC[C@@]13C)C(=O)OC4)[C@@H]2OC(=O)CN(C)C	18.3 nM	52.4 nM
COc1ccc(/C=C/C(=O)c2cccc(B(O)O)c2)cc1O	2860 nM	21000 nM
CN(C)c1ccc2nc3ccc(N)cc3[n+](-c3ccccc3)c2c1	179 nM and 1740 nM	1540 nM and 7280 nM
Cc1ccc(-c2cc(C(=O)N3N=C(c4ccc(N)cc4)CC3c3ccc(Cl)cc3)c3ccccc3n2)cc1 (stereo unspecified)	4910 nM	> 100000 nM
CN1CCN(c2ccc3nc(-c4c5cccccc-5[nH]c4=O)[nH]c3c2)CC1	15400 nM	34200 nM
